According to paper PMC7958344, “Development of Novel Inhibitors Targeting the D-Box of the DNA Binding Domain of Androgen Receptor” (International Journal of Molecular Sciences, 2021):
Changes are numbered by the printed parent chain. Read-outs that look alike come from different tables or passages of the source.

What was measured:
[1] = biological target: T1, full-length AR (Homo sapiens, UniProt P10275); assay: Mammalian two-hybrid (M2H) AR dimerization assay in PC3 cells; assay type: cell-based; settings: result in words
T1 construct: Full-length AR cDNA were cloned using Polymerase Incomplete Primer Extension; expressed in transfected cells; host or cells: PC3 (transient co-transfection of pA-AR, pB-AR and PG5-NLuc)
T1 sequence (P10275 1-920): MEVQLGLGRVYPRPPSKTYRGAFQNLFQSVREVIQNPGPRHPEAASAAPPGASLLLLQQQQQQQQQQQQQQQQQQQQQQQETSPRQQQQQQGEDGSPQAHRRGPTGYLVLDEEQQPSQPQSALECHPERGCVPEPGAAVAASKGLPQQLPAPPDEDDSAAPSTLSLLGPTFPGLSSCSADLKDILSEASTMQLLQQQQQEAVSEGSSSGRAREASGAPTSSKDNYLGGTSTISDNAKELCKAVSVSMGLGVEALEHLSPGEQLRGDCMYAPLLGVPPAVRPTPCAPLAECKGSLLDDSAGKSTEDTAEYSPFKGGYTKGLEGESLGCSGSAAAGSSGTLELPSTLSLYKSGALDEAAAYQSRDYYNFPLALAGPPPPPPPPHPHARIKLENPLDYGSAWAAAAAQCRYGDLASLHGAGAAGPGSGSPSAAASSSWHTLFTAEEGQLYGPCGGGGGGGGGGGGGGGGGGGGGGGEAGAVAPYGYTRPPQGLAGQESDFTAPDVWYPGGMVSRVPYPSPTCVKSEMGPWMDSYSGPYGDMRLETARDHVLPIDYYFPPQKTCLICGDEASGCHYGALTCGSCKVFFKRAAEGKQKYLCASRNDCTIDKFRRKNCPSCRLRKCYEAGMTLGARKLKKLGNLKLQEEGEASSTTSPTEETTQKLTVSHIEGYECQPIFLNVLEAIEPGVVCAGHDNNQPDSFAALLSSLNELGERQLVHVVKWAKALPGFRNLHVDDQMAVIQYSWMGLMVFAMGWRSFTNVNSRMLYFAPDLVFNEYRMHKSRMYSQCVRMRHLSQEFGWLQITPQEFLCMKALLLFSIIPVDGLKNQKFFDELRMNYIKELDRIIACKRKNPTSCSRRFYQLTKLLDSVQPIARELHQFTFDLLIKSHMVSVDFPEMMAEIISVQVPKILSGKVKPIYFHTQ
Procedure: Next, the dimerization of full-length AR was assessed by a mammalian two-hybrid (M2H, [30]) assay, where target proteins were fused with Gal4-DBD or VP16 domains. […] High concentrations of VPC-17005 (>20 μM) were required for significant reduction in AR and AR-V7 homo-dimerization.
Figure 3 Anti-dimerization effects of VPC-17160 and VPC-17281 at 20 μM concentraction. PC3 cells were co-transfected with plasmids encoding pA-AR and pB-AR and pG5-NLuc-Gal4 specific reporter. Cells were treated with 0.1% DMSO control, VPC-17160, VPC-17281, or VPC-17005 followed by Nanoluciferase measurement. p < 0.05 (*), p < 0.01 (**) were considered statistically significant (two-tailed t-test). Two-tailed t-test for VPC-17005 vs. 17160 p < 0.05; VPC-17005 vs. VPC-17281 p < 0.05.
Full-length human AR (hARWT) was encoded on pcDNA3.1 expression plasmid. […]
(§1) LNCaP cells incorporating an AR2PB-eGFP reporter construct (2 × probasin) are previously described. eGFP and secreted PSA assays were performed as described. […] PC3_iV7_3TKNluc or PC3_iNluc cells were seeded in DMEM +5% CSS at 5000 cells/well for 24 h, followed by adding doxycycline/compounds (18 h) and luminescence measurement. LNCaP and 22rv1 cells were starved in RPMI + CSS (48 h) before cell viability tests using the same conditions as above, followed by 30 μL/well PrestoBlue™ Reagent (1 h) and fluorescence measurement (TECAN F200).

[2] = biological target: T2, AR-LBD (Rattus norvegicus, UniProt P15207); assay: Androgen displacement assay (Polar Screen Androgen Receptor Competitor Green Assay Kit, FluormoneAL Green); assay type: binding; settings: for % Displacement (1 μM) / % Displacement (10 μM): Table 1
T2 construct: displace a fluorescent-tagged androgenic ligand (FluormoneAL Green) from the AR-LBD; purchased
T2 sequence (P15207 651-882 limits assumed): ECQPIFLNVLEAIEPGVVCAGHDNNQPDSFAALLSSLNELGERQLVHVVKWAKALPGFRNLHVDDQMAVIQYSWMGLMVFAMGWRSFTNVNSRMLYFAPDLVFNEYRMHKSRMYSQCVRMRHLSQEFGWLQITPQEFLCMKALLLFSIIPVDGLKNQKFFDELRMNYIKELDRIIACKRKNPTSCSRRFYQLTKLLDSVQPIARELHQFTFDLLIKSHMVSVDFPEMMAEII
Procedure: Androgen displacement was assessed with the Polar Screen Androgen Receptor Competitor Green Assay Kit as per the instructions of the manufacturer.

[3] = biological target: T3, full-length AR (Homo sapiens, UniProt P10275, T878A); assay: eGFP AR transcriptional assay in LNCaP cells; assay type: cell-based; settings: for eGFP FL (12 μM) / IC50: LNCaP-eGFP; for eGFP FL (12 μM): Supplementary Table 1; for inhibition of AR-FL expression at 12 μM: result in words; for IC50: read-out: estimated IC50, AR-FL transcriptional activity (eGFP)
T3 construct: endogenous in cells; host or cells: LNCaP with AR2PB-eGFP reporter
T3 sequence (P10275 1-920 T878A): T1 sequence (P10275 1-920) with T878A
Procedure: In addition, these compounds were also tested for their ability to inhibit full-length AR transcriptional activity in LNCaP cells using an enhanced green fluorescent protein (eGFP) AR transcriptional assay, where the expression of eGFP is under the direct control of an androgen-responsive probasin-derived promoter.
(§2) LNCaP cells incorporating an AR2PB-eGFP reporter construct (2 × probasin) are previously described. eGFP and secreted PSA assays were performed as described. The mammalian two-hybrid assay was performed in PC3 cells by co-transfection of 15 ng pA-AR or pB-AR plasmids, with 12.5 ng PG5-NLuc reporter. PC3_iV7_3TKNluc or PC3_iNluc cells were seeded in DMEM +5% CSS at 5000 cells/well for 24 h, followed by adding doxycycline/compounds (18 h) and luminescence measurement. LNCaP and 22rv1 cells were starved in RPMI + CSS (48 h) before cell viability tests using the same conditions as above, followed by 30 μL/well PrestoBlue™ Reagent (1 h) and fluorescence measurement (TECAN F200).

[4] = tested on: 22rv1 cells; assay: Cell viability (PrestoBlue), 22rv1; assay type: cell-based; settings: for growth inhibition of 22rv1 cell line: result in words
Procedure: (§3) VPC-17160 and VPC-17281 were further evaluated for their potential to inhibit the growth of prostate cancer cell lines LNCaP (AR-FL dependent) and 22rv1 (AR-V7 dependent).
as §2

[5] = tested on: PC3-dox inducible luciferase cell line; assay: Nanoluc counterscreen in PC3-dox inducible luciferase cell line; assay type: cell-based; settings: Supplementary Table 1
Source text: (§4) Compounds were first screened for their inhibition of AR-V7 transcriptional activity. To do so, we created a PC3 cell-based population that stably encodes (i) a doxycycline-inducible AR-V7 cDNA sequence (pLIX402 tet-inducible promoter, puromycin selection), and (ii) the ARR3tk-nanoLuciferase reporter construct. […] This allowed the screening of the compounds without using the error-prone method of transiently transfecting V7 and reporter constructs. The inhibition efficacy of compounds was measured using doxycycline treatment along with an increasing dose of compounds. From this screen, a panel of compounds was identified with some anti-dimerization activity (Supplementary Table S1). […] To rule out direct effects of the compounds on luciferase expression or PC3 cell viability, we used a PC3-dox inducible luciferase cell line in parallel.
as §1

[6] = tested on: LNCaP cells; assay: Cell viability (PrestoBlue), LNCaP; assay type: cell-based; settings: for growth inhibition of LNCaP cell line: result in words
Procedure: as §3, §2

[7] = biological target: T4, AR-V7 (Homo sapiens, UniProt P10275); assay: AR-V7 transcriptional activity, doxycycline-inducible AR-V7 with ARR3tk-nanoLuciferase reporter in PC3 cells; assay type: cell-based; settings: for IC50: PC3 doxycycline-inducible AR-V7, ARR3tk-nanoLuciferase reporter, read-out: IC50 for the inhibition of the AR-V7 transcription; for inhibition at 10 µM: PC-3, Supplementary Table 1, read-out: Inhibition Dox-V7 (10 μM)
T4 construct: expressed in transfected cells
T4 sequence (P10275 1-644 isoform P10275-3): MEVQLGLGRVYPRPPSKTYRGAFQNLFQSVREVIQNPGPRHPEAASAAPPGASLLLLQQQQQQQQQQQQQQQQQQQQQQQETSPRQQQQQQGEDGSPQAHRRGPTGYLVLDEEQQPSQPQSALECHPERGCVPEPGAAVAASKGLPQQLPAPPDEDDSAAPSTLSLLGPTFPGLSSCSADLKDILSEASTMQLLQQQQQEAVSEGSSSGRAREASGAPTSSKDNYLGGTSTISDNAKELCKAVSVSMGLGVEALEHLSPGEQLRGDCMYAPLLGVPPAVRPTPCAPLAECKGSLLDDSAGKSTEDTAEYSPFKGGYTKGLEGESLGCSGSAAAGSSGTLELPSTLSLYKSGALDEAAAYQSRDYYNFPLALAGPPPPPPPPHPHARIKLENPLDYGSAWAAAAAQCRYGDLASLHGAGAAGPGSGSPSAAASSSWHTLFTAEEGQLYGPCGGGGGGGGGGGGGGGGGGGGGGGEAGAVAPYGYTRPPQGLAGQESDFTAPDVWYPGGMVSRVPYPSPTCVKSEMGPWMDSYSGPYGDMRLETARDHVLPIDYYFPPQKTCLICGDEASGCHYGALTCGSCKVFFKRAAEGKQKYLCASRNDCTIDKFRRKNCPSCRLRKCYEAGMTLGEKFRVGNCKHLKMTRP
Source text: as §4, §2

[8] = tested on: prostate-specific antigen (PSA); assay: Secreted PSA production in LNCaP cells; assay type: cell-based; settings: Homo sapiens, read-out: IC50, secreted PSA levels
Procedure: To further validate compounds as AR inhibitors, we tested their activity by quantifying the effect on the production of endogenous prostate-specific antigen (PSA) in PCa cell lines. PSA is an AR-regulated serine protease and is widely used as a biomarker for PCa.
as §2

[9] = Metabolic stability in human microsomes; assay type: in vitro ADME
Source text: We then tested the metabolic stability of these molecules using human microsomes. […] This could explain the lower potency of this compound in cell growth assays, as it is metabolized quickly in the media.

[10] = tested on: PC3 cell line; assay: Activity in the PC3 cell line; assay type: cell-based; settings: off-target effects; result in words
[11] = microsomal stability, Table 1, read-out: Half-Life
[12] = read-out: half-life in microsomes (T1/2)

| reduction of dimerization at 20 μM [1] | % Displacement (1 μM) [2] [%] | % Displacement (10 μM) [2] [%] | eGFP FL (12 μM) [3] | inhibition of AR-FL expression at 12 μM [3] | IC50 [3] [µM] | IC50 [7] [µM] | inhibition at 10 µM [7] [%] | IC50 [8] [µM] | half-life [9, 11] [min] | half-life [9, 12] [min] | effect on the PC3 cell line [10] | hormone displacement at 50 μM ([2]; high concentrations (50 μM), result in words) | IC50 ([4]; Homo sapiens, 22rv1 (AR-V7 dependent), read-out: IC50, cell growth) [µM] | IC50 ([6]; Homo sapiens, LNCaP (AR-FL dependent), read-out: IC50, cell growth) [µM] | Structure (SMILES) | growth inhibition of 22rv1 cell line [4] | Nanoluc Counterscreen (10 μM) [5] [%] | growth inhibition of LNCaP cell line [6] |
| --- | --- | --- | --- | --- | --- | --- | --- | --- | --- | --- | --- | --- | --- | --- | --- | --- | --- | --- |
| full reduction of dimerization | 10 | 29 | 76 | significant inhibition | 2 | 6 | 70 | 2 | 3 | 3 | no effect |  |  |  | O=C(NCc1cccc2ccccc12)NCC(O)(c1cccs1)c1cccs1 [VPC-17160] | inhibited the growth | 20 | inhibited the growth |
| full reduction of dimerization | 0 | 0 | 100 | significant inhibition | 5 | 6 | 70 | 6 | 90 | > 90 | some activity | no significant hormone displacement | 10 | 25 | CC(O)(CNC(=O)C=Cc1ccnc2ccccc12)c1ccsc1 (stereo not shown) [VPC-17281] | inhibited the growth | 10 | inhibited the growth |
|  |  |  |  |  |  |  |  |  | > 1000 |  |  |  |  |  | CNC(=O)c1ccc(N2C(=S)N(c3ccc(C#N)c(C(F)(F)F)c3)C(=O)C2(C)C)cc1F [Enzalutamide, reference compound] |  |  |  |
